Experimental data reported in PubChem BioAssay AID1845196 (Molecular Pharmacology Branch, DTP, NCI, 2023).
Values joined by “and” are separate entries in the source; they are usually repeats but may differ in a detail not shown here. Identical values can stand only once.

System: 292921-168-R tumor spheroid viability
Assay: Anticancer human tumor 292921-168-R patient-derived pancreatic carcinoma cell line growth inhibition
Settings: spheroids with HUVEC and MSC; for viability, T/C: stronger effect = lower value
Procedure, shortened: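 Complex spheroids of malignant cells with endothelial cells and mesenchymal stem cells; agents alone or combined, from near clinical Cmax (or 10 microM if unknown) down in half-log steps, 0.25% DMSO final.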

[1] = curve of first compound, second compound 1 µM
[2] = curve of first compound, second compound 3.16 µM
[3] = curve of first compound, second compound 10 µM
[4] = curve of first compound, second compound 31.6 µM
[5] = curve of first compound, second compound 100 µM
[6] = second compound 1 µM, first compound 0.00949 µM
[7] = second compound 1 µM, first compound 0.03 µM
[8] = second compound 1 µM, first compound 0.0949 µM
[9] = second compound 1 µM, first compound 0.3 µM
[10] = second compound 1 µM, first compound 0.949 µM
[11] = second compound 1 µM, first compound 3 µM
[12] = second compound 3.16 µM, first compound 0.00949 µM
[13] = second compound 3.16 µM, first compound 0.03 µM
[14] = second compound 3.16 µM, first compound 0.0949 µM
[15] = second compound 3.16 µM, first compound 0.3 µM
[16] = second compound 3.16 µM, first compound 0.949 µM
[17] = second compound 3.16 µM, first compound 3 µM
[18] = second compound 10 µM, first compound 0.00949 µM
[19] = second compound 10 µM, first compound 0.03 µM
[20] = second compound 10 µM, first compound 0.0949 µM
[21] = second compound 10 µM, first compound 0.3 µM
[22] = second compound 10 µM, first compound 0.949 µM
[23] = second compound 10 µM, first compound 3 µM
[24] = second compound 31.6 µM, first compound 0.00949 µM
[25] = second compound 31.6 µM, first compound 0.03 µM
[26] = second compound 31.6 µM, first compound 0.0949 µM
[27] = second compound 31.6 µM, first compound 0.3 µM
[28] = second compound 31.6 µM, first compound 0.949 µM
[29] = second compound 31.6 µM, first compound 3 µM
[30] = second compound 100 µM, first compound 0.00949 µM
[31] = second compound 100 µM, first compound 0.03 µM
[32] = second compound 100 µM, first compound 0.0949 µM
[33] = second compound 100 µM, first compound 0.3 µM
[34] = second compound 100 µM, first compound 0.949 µM
[35] = second compound 100 µM, first compound 3 µM
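Further: spheroids exposed to compounds for 7 days.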

Which results are given for `Cn1ncnc1[C@H]1c2n[nH]c(=O)c3cc(F)cc(c23)N[C@@H]1c1ccc(F)cc1` + Cn1nnc2c(C(N)=O)ncn2c1=O?
IC50 [1]: 393 nM; IC50 [2]: 439 nM; IC50 [3]: 143 nM; IC50 [4]: 19 nM; IC50 [5]: < 9.49 nM; viability, T/C [6]: 88.4%; viability, T/C [7]: 81.3%; viability, T/C [8]: 73.8%; viability, T/C [9]: 58.8%; viability, T/C [10]: 27.7%; viability, T/C [11]: 9.76%; viability, T/C [12]: 81.1%; viability, T/C [13]: 82%; viability, T/C [14]: 73%; viability, T/C [15]: 59.5%; viability, T/C [16]: 32%; viability, T/C [17]: 11.1%; viability, T/C [18]: 75.1%; viability, T/C [19]: 68.1%; viability, T/C [20]: 55.8%; viability, T/C [21]: 39.2%; viability, T/C [22]: 23.3%; viability, T/C [23]: 9.97%; viability, T/C [24]: 58.4%; viability, T/C [25]: 44.4%; viability, T/C [26]: 31.9%; viability, T/C [27]: 24%; viability, T/C [28]: 15.8%; viability, T/C [29]: 8.83%; viability, T/C [30]: 24.2%; viability, T/C [31]: 19.3%; viability, T/C [32]: 17.4%; viability, T/C [33]: 14.6%; viability, T/C [34]: 11.7%; viability, T/C [35]: 7.45%

For `Cc1sc2c(c1C)C(c1ccc(Cl)cc1)=NC(CC(=O)Nc1ccc(O)cc1)c1nnc(C)n1-2` (configuration not stated) + CC[C@@]1(O)C(=O)OCc2c1cc1n(c2=O)Cc2cc3c(CN(C)C)c(O)ccc3nc2-1, which IC50 (curve of first compound, second compound 0.003 µM) is on record?
Its IC50 is 389 nM.

And the IC50 (curve of first compound, second compound 0.00949 µM)?
Its IC50 is 449 nM.

What about the IC50 (curve of first compound, second compound 0.03 µM) of the same compound?
The IC50 was under 9.49 nM.

What about the IC50 (curve of first compound, second compound 0.0949 µM) of the same compound?
The IC50 was under 9.49 nM.

What about the IC50 (curve of first compound, second compound 0.3 µM) of the same compound?
The IC50 was under 9.49 nM.

And the viability, T/C (second compound 0.003 µM, first compound 0.00949 µM)?
The viability, T/C was 92.5%.

And the viability, T/C (second compound 0.003 µM, first compound 0.03 µM)?
The viability, T/C was 67.6%.

What about the viability, T/C (second compound 0.003 µM, first compound 0.0949 µM) of the same compound?
The viability, T/C was 62%.

And the viability, T/C (second compound 0.003 µM, first compound 0.3 µM)?
The viability, T/C was 57.6%.

And the viability, T/C (second compound 0.003 µM, first compound 0.949 µM)?
The viability, T/C was 44.1%.

And the viability, T/C (second compound 0.003 µM, first compound 3 µM)?
Its viability, T/C is 28.5%.

And the viability, T/C (second compound 0.00949 µM, first compound 0.00949 µM)?
The viability, T/C was 81.1%.

What about the viability, T/C (second compound 0.00949 µM, first compound 0.03 µM) of the same compound?
Its viability, T/C is 67.4%.

And the viability, T/C (second compound 0.00949 µM, first compound 0.0949 µM)?
The viability, T/C was 63.8%.

And the viability, T/C (second compound 0.00949 µM, first compound 0.3 µM)?
The viability, T/C was 56.3%.

What about the viability, T/C (second compound 0.00949 µM, first compound 0.949 µM) of the same compound?
The viability, T/C was 43.5%.

What about the viability, T/C (second compound 0.00949 µM, first compound 3 µM) of the same compound?
Its viability, T/C is 21.6%.

What about the viability, T/C (second compound 0.03 µM, first compound 0.00949 µM) of the same compound?
Its viability, T/C is 31.5%.

And the viability, T/C (second compound 0.03 µM, first compound 0.03 µM)?
The viability, T/C was 31.4%.

What about the viability, T/C (second compound 0.03 µM, first compound 0.0949 µM) of the same compound?
The viability, T/C was 29.6%.

And the viability, T/C (second compound 0.03 µM, first compound 0.3 µM)?
The viability, T/C was 25%.

And the viability, T/C (second compound 0.03 µM, first compound 0.949 µM)?
The viability, T/C was 13.8%.

What about the viability, T/C (second compound 0.03 µM, first compound 3 µM) of the same compound?
The viability, T/C was 2.79%.

What about the viability, T/C (second compound 0.0949 µM, first compound 0.00949 µM) of the same compound?
Its viability, T/C is 9.7%.

And the viability, T/C (second compound 0.0949 µM, first compound 0.03 µM)?
Its viability, T/C is 8.41%.

And the viability, T/C (second compound 0.0949 µM, first compound 0.0949 µM)?
The viability, T/C was 6.38%.

What about the viability, T/C (second compound 0.0949 µM, first compound 0.3 µM) of the same compound?
Its viability, T/C is 3.78%.

And the viability, T/C (second compound 0.0949 µM, first compound 0.949 µM)?
Its viability, T/C is 1.73%.

And the viability, T/C (second compound 0.0949 µM, first compound 3 µM)?
Its viability, T/C is 1.06%.

What about the viability, T/C (second compound 0.3 µM, first compound 0.00949 µM) of the same compound?
The viability, T/C was 4.29%.

And the viability, T/C (second compound 0.3 µM, first compound 0.03 µM)?
The viability, T/C was 3.58%.

And the viability, T/C (second compound 0.3 µM, first compound 0.0949 µM)?
The viability, T/C was 3.16%.

And the viability, T/C (second compound 0.3 µM, first compound 0.3 µM)?
Its viability, T/C is 1.72%.

What about the viability, T/C (second compound 0.3 µM, first compound 0.949 µM) of the same compound?
Its viability, T/C is 0.92%.

And the viability, T/C (second compound 0.3 µM, first compound 3 µM)?
The viability, T/C was 0.66%.

How did the IC50 [1] turn out when `Cc1sc2c(c1C)C(c1ccc(Cl)cc1)=NC(CC(=O)Nc1ccc(O)cc1)c1nnc(C)n1-2` (configuration not stated) + Cn1nnc2c(C(N)=O)ncn2c1=O was run?
The IC50 was 2430 nM.

And the IC50 [2]?
The IC50 was 1980 nM.

And the IC50 [3]?
The IC50 was 1910 nM.

What about the IC50 [4] of the same compound?
The IC50 was 1700 nM.

What about the IC50 [5] of the same compound?
Its IC50 is 904 nM.

And the viability, T/C [6]?
The viability, T/C was 109%.

And the viability, T/C [7]?
Its viability, T/C is 111%.

What about the viability, T/C [8] of the same compound?
Its viability, T/C is 117%.

And the viability, T/C [9]?
Its viability, T/C is 99.9%.

And the viability, T/C [10]?
The viability, T/C was 74.6%.

What about the viability, T/C [11] of the same compound?
The viability, T/C was 44.5%.

And the viability, T/C [12]?
Its viability, T/C is 109%.

What about the viability, T/C [13] of the same compound?
Its viability, T/C is 117%.

And the viability, T/C [14]?
Its viability, T/C is 113%.

And the viability, T/C [15]?
Its viability, T/C is 111%.

And the viability, T/C [16]?
The viability, T/C was 68.9%.

What about the viability, T/C [17] of the same compound?
The viability, T/C was 39.2%.

And the viability, T/C [18]?
Its viability, T/C is 112%.

And the viability, T/C [19]?
The viability, T/C was 115%.

What about the viability, T/C [20] of the same compound?
Its viability, T/C is 111%.

And the viability, T/C [21]?
Its viability, T/C is 89%.

And the viability, T/C [22]?
The viability, T/C was 77.3%.

What about the viability, T/C [23] of the same compound?
Its viability, T/C is 33.9%.

What about the viability, T/C [24] of the same compound?
Its viability, T/C is 107%.

And the viability, T/C [25]?
Its viability, T/C is 114%.

And the viability, T/C [26]?
The viability, T/C was 109%.

What about the viability, T/C [27] of the same compound?
Its viability, T/C is 102%.

And the viability, T/C [28]?
The viability, T/C was 67.4%.

What about the viability, T/C [29] of the same compound?
Its viability, T/C is 32.9%.

And the viability, T/C [30]?
Its viability, T/C is 90.3%.

What about the viability, T/C [31] of the same compound?
The viability, T/C was 106%.

And the viability, T/C [32]?
Its viability, T/C is 95.3%.

And the viability, T/C [33]?
The viability, T/C was 89.1%.

What about the viability, T/C [34] of the same compound?
Its viability, T/C is 48.3%.

What about the viability, T/C [35] of the same compound?
Its viability, T/C is 16.1%.

For `[2H]c1nc(C)nc([2H])c1-c1cc(NC[C@@H](C)c2cccc3c(C(=O)NC)ccnc23)ncn1`, which viability, T/C (compound 0.0316 µM) is on record?
The viability, T/C was 106% and 103% (2×).

And the viability, T/C (compound 0.1 µM)?
The viability, T/C was 104% and 93.4% and 89.7%.

What about the viability, T/C (compound 0.316 µM) of the same compound?
Its viability, T/C is 104% and 100% and 97.8%.

What about the viability, T/C (compound 1 µM) of the same compound?
The viability, T/C was 115% and 99.2% and 93.3%.

And the viability, T/C (compound 3.16 µM)?
The viability, T/C was 113% and 101% and 96.8%.

And the viability, T/C (compound 10 µM)?
Its viability, T/C is 95.7% and 91.2% and 95.8%.

What about the IC50 (curve of compound) of the same compound?
The IC50 was over 10000 nM.
